Experiments:
A549 cells = assay: Proliferation Assay (A549 viability, Cell Titer Fluor, 72 hours); format: cell-based; conditions: Homo sapiens, A549, 72 h
Method in brief: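 A549 cells seeded at 1000 cells/well, rested 24 h, then exposed to compound in 0.5% DMSO for 72 h at 37 °C. Viability read by Cell Titer Fluor fluorescence; IC50 from four-parameter logistic fit.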

[1] = biological target: purified recombinant human GAC (GLS1) (Homo sapiens (Human), UniProt O94925); assay: GLS1 Enzymatic Activity Assay (dual-coupled enzymatic assay, resorufin/Amplex UltraRed readout); format: biochemical;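 also: glutamate from GAC coupled via glutamate oxidase and peroxidase to resorufin, read as fluorescence (ex 530, em 590 nm) kinetically or at 20 min, four-parameter logistic IC50 fit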
Sequence of purified recombinant human GAC (GLS1) (O94925 other isoform, or with tags, fused parts or gaps): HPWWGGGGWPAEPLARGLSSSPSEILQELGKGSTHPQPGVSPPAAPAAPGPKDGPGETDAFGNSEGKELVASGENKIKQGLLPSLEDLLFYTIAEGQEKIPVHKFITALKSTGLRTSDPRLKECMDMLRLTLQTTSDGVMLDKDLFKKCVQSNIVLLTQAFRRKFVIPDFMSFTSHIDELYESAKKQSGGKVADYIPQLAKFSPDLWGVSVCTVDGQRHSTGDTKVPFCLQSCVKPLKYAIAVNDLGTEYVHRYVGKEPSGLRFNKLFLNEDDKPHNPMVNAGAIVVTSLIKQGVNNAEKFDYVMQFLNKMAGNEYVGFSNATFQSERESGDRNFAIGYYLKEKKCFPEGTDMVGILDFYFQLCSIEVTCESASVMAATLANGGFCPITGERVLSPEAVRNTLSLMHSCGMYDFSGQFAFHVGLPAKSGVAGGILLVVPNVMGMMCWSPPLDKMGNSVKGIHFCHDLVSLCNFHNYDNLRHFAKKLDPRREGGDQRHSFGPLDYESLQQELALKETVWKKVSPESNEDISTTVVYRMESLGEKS

SMILES	EC50 (A549 cells) [µM]	IC50 [1] [µM]
O=C(NCc1cccc(C2CC2)c1)c1cn(CCCCn2cc(C(=O)NCc3cncc(C(F)(F)F)c3)nn2)nn1 [Example 133, 1-[4-(4-{[(3-cyclopropylphenyl)methyl]carbamoyl}-1H-1,2,3-triazol-1-yl)butyl]-N-{[5-(trifluoromethyl)pyridin-3-yl]methyl}-1H-1,2,3-triazole-4-carboxamide]	< 0.1	< 0.1
O=C(Cc1cccc(OC(F)(F)F)c1)Nc1cn(CC(F)CCn2cc(C(=O)NCc3ccccn3)nn2)nn1 (stereo not shown) [Example 327, 1-[3-fluoro-4-(4-{2-[3-(trifluoromethoxy)phenyl]acetamido}-1H-1,2,3-triazol-1-yl)butyl]-N-(pyridin-2-ylmethyl)-1H-1,2,3-triazole-4-carboxamide]	< 0.1	< 0.1
O=C(Cc1cc(OC(F)(F)F)ccc1F)Nc1nnc(CCC(F)Cn2cc(C(=O)NCc3cccnc3)nn2)s1 (stereo not shown) [Example 218, 1-(2-fluoro-4-(5-(2-(2-fluoro-5-(trifluoromethoxy)phenyl)acetamido)-1,3,4-thiadiazol-2-yl)butyl)-N-(pyridin-3-ylmethyl)-1H-1,2,3-triazole-4-carboxamide]	< 0.1	< 0.1
O=C(Cc1cccnc1)Nc1cn(CCCCn2cc(C(=O)NCc3cccnc3)nn2)nn1 [Example 320, 1-(4-{4-[2-(pyridin-3-yl)acetamido]-1H-1,2,3-triazol-1-yl}butyl)-N-(pyridin-3-ylmethyl)-1H-1,2,3-triazole-4-carboxamide]	0.5 to 5	0.1 to 0.5
CNC(=O)c1cn(CCCCc2ccc(NC(=O)Cc3ccccc3)nn2)nn1 [Example 161, N-methyl-1-{4-[6-(2-phenylacetamido)pyridazin-3-yl]butyl}-1H-1,2,3-triazole-4-carboxamide]	< 0.1	< 0.1
O=C(NCc1cc(C(F)(F)F)ccn1)c1cn(CCCCn2cc(C(=O)NCC3CCC3)nn2)nn1 [Example 85, 1-(4-{4-[(cyclobutylmethyl)carbamoyl]-1H-1,2,3-triazol-1-yl}butyl)-N-{[4-(trifluoromethyl)pyridin-2-yl]methyl}-1H-1,2,3-triazole-4-carboxamide]	0.5 to 5	0.5 to 5
O=C(NCc1cc(C(F)(F)F)ccn1)c1cn(CC(F)CCn2cc(C(=O)N[C@H](CO)c3ccccc3)nn2)nn1 (stereo partly drawn) [Example 130, 1-[2-fluoro-4-(4-{[(1S)-2-hydroxy-1-phenylethyl]carbamoyl}-1H-1,2,3-triazol-1-yl)butyl]-N-1{[4-(trifluoromethyl)pyridin-2-yl]methyl}-1H-1,2,3-triazole-4-carboxamide]	0.1 to 0.5	0.1 to 0.5

Other lines, results leading:

EC50 (A549 cells) [µM]	IC50 [1] [µM]	SMILES
0.1 to 0.5	< 0.1	O=C(Cc1ccccn1)Nc1cn(CCCCn2cc(C(=O)NCc3cc(Cl)ccc3F)nn2)nn1 [Example 338, N-[(5-chloro-2-fluorophenyl)methyl]-1-(4-{4-[2-(pyridin-2-yl)acetamido]-1H-1,2,3-triazol-1-yl}butyl)-1H-1,2,3-triazole-4-carboxamide]
< 0.1	< 0.1	O=C(NCc1cncc(C(F)(F)F)c1)c1cn(CC(F)CCc2nnc(C(=O)NCc3ccc(C(F)(F)F)cn3)s2)nn1 (stereo not shown) [Example 488, 5-{3-fluoro-4-[4-({[5-(trifluoromethyl)pyridin-3-yl]methyl}carbamoyl)-1H-1,2,3-triazol-1-yl]butyl}-N-{[5-(trifluoromethyl)pyridin-2-yl]methyl}-1,3,4-thiadiazole-2-carboxamide]
0.5 to 5	0.1 to 0.5	CNC(=O)c1nnc(CCC(F)Cn2cc(C(=O)NCc3ccccc3)nn2)s1 (stereo not shown) [Example 556, 5-{4-[4-(benzylcarbamoyl)-1H-1,2,3-triazol-1-yl]-3-fluorobutyl}-N-methyl-1,3,4-thiadiazole-2-carboxamide]
0.1 to 0.5	< 0.1	O=C(Cc1cc(OC(F)(F)F)ccc1F)Nc1ccc(CCCCn2cc(C(=O)NCC3CCO3)nn2)nn1 (stereo not shown) [Example 582, 1-(4-(6-(2-(2-fluoro-5-(trifluoromethoxy)phenyl)acetamido)pyridazin-3-yl)butyl)-N-(oxetan-2-ylmethyl)-1H-1,2,3-triazole-4-carboxamide]
